Test results reported in US5245035A, “Heterocyclic boron compounds as intermediates for angiotensin II antagonists” (Imperial Chemical Industries PLC, priority 1991, dated 1993).
Structures can show the parent of a compound that is named as a salt.

How the values were obtained:
[1] = biological target: T1, AII-induced contractions of isolated rabbit aorta (Oryctolagus cuniculus, UniProt P34976); test: Test B: in vitro antagonism of AII-induced contractions of isolated rabbit aorta; format: cell-based; settings: 37° C., read-out: average pA2 (converted)
T1 construct: isolated rabbit aorta, maintained in a physiological salt solution; from tissue; host or cells: isolated rabbit aorta
T1 sequence (P34976 1-359): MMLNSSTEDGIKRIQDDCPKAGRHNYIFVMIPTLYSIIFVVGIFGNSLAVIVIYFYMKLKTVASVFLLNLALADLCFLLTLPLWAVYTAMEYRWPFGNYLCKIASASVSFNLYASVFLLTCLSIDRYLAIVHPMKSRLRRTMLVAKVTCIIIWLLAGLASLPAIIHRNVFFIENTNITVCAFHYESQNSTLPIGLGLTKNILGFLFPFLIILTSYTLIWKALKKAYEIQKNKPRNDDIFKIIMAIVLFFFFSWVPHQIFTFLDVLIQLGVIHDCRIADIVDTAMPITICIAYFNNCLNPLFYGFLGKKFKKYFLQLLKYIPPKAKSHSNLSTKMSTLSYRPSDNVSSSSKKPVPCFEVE
Protocol: The antagonism of one or more of the physiological actions of AII and, in particular, the antagonism of the interaction of AII with the receptors which mediate its effects on a target tissue, may be assessed using one or more of the following, routine laboratory procedures: This in vitro test involves the measurement of the antagonistic effects of the test compound against […] contractions of isolated rabbit aorta, maintained in a physiological salt solution at 37° C. In order to ensure that the effect of the compound is specific to antagonism of AII, the effect of the test compound on noradrenaline-induced contractions may also be determined in the same preparation.

[2] = tested on: angiotensin II-induced pressor responses; test: Test C: in vivo antagonism of angiotensin II-induced pressor responses in terminally-anaesthetised or conscious rats; settings: Rattus norvegicus, iv, i.v. administration
Text: The antagonism of one or more of the physiological actions of AII and, in particular, the antagonism of the interaction of AII with the receptors which mediate its effects on a target tissue, may be assessed using one or more of the following, routine laboratory procedures: This in vivo test involves using terminally-anaesthetised or conscious rats in which an arterial catheter has been implanted under anaesthesia for the measurement of changes in blood pressure. The AII antagonistic effects of the test compound following oral or parenteral administration, are assessed against angiotensin II-induced pressor responses. To ensure that the effect is specific, the effect of the test compound on vasopressin-induced pressor responses may also be determined in the same preparation.

Row | Kb [1] | Compound | ED50 [2]
1 | 1.12 nM | Cc1cc(OCc2ccc(-c3ccccc3-c3nnn[nH]3)cc2)c2ccccc2n1.Cl [2-methyl-4-[(2'-(1H-tetrazol-5-yl)biphenyl-4-yl)methoxy]quinoline hydrochloride] | 0.5 mg/kg
2 | – | Cc1cc(OCc2ccc(-c3ccccc3-c3nnn[nH]3)cc2)c2c(n1)CCCC2 [2-methyl-5,6,7,8-tetrahydro-4-[(2'-(1H-tetrazol-5-yl)methoxy]quinoline hydrochloride] | 0.28 mg/kg
